Measurements: patent US20040072770A1, “Methods for specifically inhibiting histone deacetylase-7 and 8” (priority 2002, published 2004)

Assays:
HDAC-6 = target: T1, HDAC-6 (Homo sapiens, UniProt Q9UBN7); assay: Enzyme inhibitory activity, HD6; format: biochemical; conditions: read-out: IC50 HD 6
T1 sequence (Q9UBN7 1-1215): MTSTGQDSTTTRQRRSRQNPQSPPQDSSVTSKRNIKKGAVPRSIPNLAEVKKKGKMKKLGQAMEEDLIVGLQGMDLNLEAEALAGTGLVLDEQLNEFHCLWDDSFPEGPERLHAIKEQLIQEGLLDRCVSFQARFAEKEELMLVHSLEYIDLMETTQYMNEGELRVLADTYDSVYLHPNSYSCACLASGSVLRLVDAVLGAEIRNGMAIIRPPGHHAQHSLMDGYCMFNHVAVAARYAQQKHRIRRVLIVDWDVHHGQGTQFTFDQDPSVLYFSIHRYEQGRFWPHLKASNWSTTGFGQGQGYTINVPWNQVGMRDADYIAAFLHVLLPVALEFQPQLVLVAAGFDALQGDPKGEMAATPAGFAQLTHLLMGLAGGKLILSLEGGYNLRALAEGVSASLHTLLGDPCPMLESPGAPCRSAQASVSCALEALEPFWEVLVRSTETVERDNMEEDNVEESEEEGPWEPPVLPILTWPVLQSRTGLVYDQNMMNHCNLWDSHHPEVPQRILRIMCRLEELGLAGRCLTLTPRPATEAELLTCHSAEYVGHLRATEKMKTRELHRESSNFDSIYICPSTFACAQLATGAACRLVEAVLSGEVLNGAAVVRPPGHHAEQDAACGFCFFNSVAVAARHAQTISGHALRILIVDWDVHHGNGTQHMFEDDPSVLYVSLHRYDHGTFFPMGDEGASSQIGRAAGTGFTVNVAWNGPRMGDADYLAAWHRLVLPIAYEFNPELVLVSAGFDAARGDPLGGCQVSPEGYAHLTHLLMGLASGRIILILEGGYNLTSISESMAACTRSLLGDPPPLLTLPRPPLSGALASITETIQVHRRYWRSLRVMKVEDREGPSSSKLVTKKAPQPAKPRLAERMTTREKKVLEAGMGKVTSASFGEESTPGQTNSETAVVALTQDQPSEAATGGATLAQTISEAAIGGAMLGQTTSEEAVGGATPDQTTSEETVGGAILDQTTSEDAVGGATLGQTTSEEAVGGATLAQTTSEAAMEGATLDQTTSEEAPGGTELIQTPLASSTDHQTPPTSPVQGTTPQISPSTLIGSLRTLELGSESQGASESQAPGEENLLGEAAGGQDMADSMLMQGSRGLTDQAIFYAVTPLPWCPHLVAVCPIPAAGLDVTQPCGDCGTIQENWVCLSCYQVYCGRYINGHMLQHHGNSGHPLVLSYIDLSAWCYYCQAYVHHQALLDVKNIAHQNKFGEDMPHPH

[1] = system: lung carcinoma cells A549 tumors; assay: Tumor growth in a mouse model, A549; format: in vivo; conditions: BALB/c nude mice, vs vehicle-treated
Experimental: (§1) Female BALB/c nude mice are obtained from Charles River Laboratories (Charles River, N.Y.) and used at age 8-10 weeks. Human tumor cells (2×10^6, colon carcinoma cells HCT116 or SW48, lung carcinoma cells A549, pancreatic carcinoma Panc-1, ovarian carcinoma cells ES2, or prostate carcinoma cells Du145) are injected subcutaneously in the animal's flank and allowed to form solid tumors. Tumor fragments are serially passaged a minimum of three times, then approximately 30 mg tumor fragments are implanted subcutaneously through a small surgical incision under general anaesthesia. Small molecule inhibitor administration by intraperotineal or oral administration was initiated when the tumors reached a volume of 100 mm^3. For intraperotineal administration, small molecule inhibitors of HDAC-7, HDAC-8 or both, or in combination with small molecule inhibitors of HDAC-1 (20-60 mg/kg body weight/day) are dissolved in 100% DMSO and administered daily by injection. For oral administration, small molecule inhibitors of HDAC (60 mg/kg body weight) are dissolved in saline acidified with 0.2 N HCl. Tumor volumes are monitored twice weekly up to 20 days. Each experimental group contains at least 6-8 animals. Percentage inhibition is calculated using volume of tumor from vehicle-treated mice as controls. […]

[2] = system: pancreatic carcinoma Panc-1 tumors; assay: Tumor growth in a mouse model, Panc-1; format: in vivo; conditions: BALB/c nude mice, vs vehicle-treated
Experimental: as §1

HDAC-8 = target: T2, HDAC-8 (Homo sapiens, UniProt Q9BY41); assay: Enzyme inhibitory activity, HD8; format: biochemical; conditions: read-out: IC50 HD 8
T2 sequence (Q9BY41 1-377): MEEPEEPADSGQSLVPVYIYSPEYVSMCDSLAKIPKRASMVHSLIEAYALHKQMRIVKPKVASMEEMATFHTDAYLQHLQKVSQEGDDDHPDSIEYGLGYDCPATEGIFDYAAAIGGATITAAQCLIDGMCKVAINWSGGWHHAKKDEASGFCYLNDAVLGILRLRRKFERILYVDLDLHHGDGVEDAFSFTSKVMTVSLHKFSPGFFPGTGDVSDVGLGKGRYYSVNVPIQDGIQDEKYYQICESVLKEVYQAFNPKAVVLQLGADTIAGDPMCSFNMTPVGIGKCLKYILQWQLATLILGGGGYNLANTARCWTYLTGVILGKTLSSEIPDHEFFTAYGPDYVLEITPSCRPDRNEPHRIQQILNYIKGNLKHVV

[3] = system: colon cancer cells HCT116; assay: MTT assay, HCT116; format: cell-based, human; conditions: Homo sapiens, HCT-116; 72 hours
Experimental: Effects of HDAC isotype-specific small molecule inhibitors on growth inhibition of various human cancer cells (from ATCC) in vitro were determined by MTT assays. Briefly, cells seeded in 96-well plates were incubated for 72 hours at 37° C. in a 5% CO2 incubator. MTT (Sigma) was added at a final concentration of 0.5 mg/ml and incubated with the cells for 4 hours before an equal volume of solubilization buffer (50% N,N-dimethylformamide, 20% SDS, pH 4.7) was added onto cultured cells. After overnight incubation, solubilized dye was quantified by colorimetric reading at […] using a reference at 630 nM. OD values were converted to cell numbers according to a standard growth curve of the relevant cell line. The concentration which reduces cell numbers to 50% of those of DMSO-treated cells is determined as MTT IC50. In Table 4, IC50s of several HDAC7 or HDAC8 inhibitors in MTT assays in various human cancer cell lines were listed. They include colon cancer cells HCT116 and SW48, lung cancer cells A549 and H446, breast cancer cells MCF-7 and MDAmb231, a prostate cancer cell line Du145 and a bladder cancer cell line T24.

[4] = system: colon carcinoma cells SW48 tumors; assay: Tumor growth in a mouse model, SW48; format: in vivo; conditions: (6,0,O): oral; BALB/c nude mice; vs vehicle-treated
Experimental: as §1

SMILES | IC50 (HDAC-6) [µM] | % of Inhibition of Tumor Growth in Vivo A 549 ([1]; (30,I): 30 mg/kg body weight/day, intraperitoneal) | % of Inhibition of Tumor Growth in Vivo PANC-1 ([2]; (3,0,I): intraperitoneal) | IC50 (HDAC-8) [µM] | IC50 [3] [µM] | % of Inhibition of Tumor Growth in Vivo A 549 ([1]; (5,0,O): oral) | % of Inhibition of Tumor Growth in Vivo PANC-1 ([2]; (60,O): 60 mg/kg body weight, oral) | % of Inhibition of Tumor Growth in Vivo SW 48 [4]
COc1ccc(-c2ccnc(NCc3ccc(C(=O)Nc4ccccc4N)cc3)n2)cc1OC [Compound 21, N-(2-Amino-phenyl)-4-{[4-(3,4-dimethoxy-phenyl)-pyrimidin-2-ylamino]-methyl}-benzamide] | > 50 | >50(30,I) % | >50(3,0,I) % | > 50 | 0.1 | – | – | –
Cc1ccc(S(=O)(=O)Nc2ccc(/C=C/C(=O)Nc3ccccc3N)cc2)cc1 [Compound 5, N-(2-Aminophenyl)-3-[4-(4-methylbenzenesulfonylamino)-phenyl]-acrylamide] | > 50 | – | – | > 50 | 4 | – | – | –
COc1ccc(NCc2ccc(C(=O)Nc3ccccc3N)cc2)cc1OC [Compound 17, N-(2-Aminophenyl)-4-[(3,4-dimethoxyphenylamino)-methyl]-benzamide] | > 50 | – | – | > 50 | 0.4 | 67(5,0,O) % | 78(60,O) % | 68(6,0,O) %
Nc1ccccc1NC(=O)c1ccc(CSc2nc3ccccc3[nH]2)cc1 [Compound 16, N-(2-Amino-phenyl)-4-(1H-benzimidazol-2-ylsulfanylmethyl)-benzamide] | > 50 | – | – | – | 0.2 | – | – | –
